Values after ≈ are worked out from the molar mass of the structure shown.
Assay: solubility of the dyes in water
Type: physicochemical
Details: excess dye stirred 1 h at 50° C., cooled to 20° C., filtered, spectroscopic determination, read-out: Solubility (in g per 100 ml)
Protocol: The solubilities of the dyes according to the invention were determined as follows:
An excess of dye was heated at 50° C. in water with stirring for one hour. The mixture was then cooled down to 20° C. and filtered, and the dye content of the clear solution was determined spectroscopically.

SMILES	solubility [mg/mL]
COc1cc(N=Nc2c(N)ccc3cc(S(=O)(=O)O)cc(O)c23)c(C)cc1Nc1nc(NCCO)nc(Nc2cccc(S(=O)(=O)O)c2)n1 [dye 1, reference compound]	200 (≈ 281 mM)
CCCCCCNc1nc(NCCCCCC)nc(Nc2cc(S(=O)(=O)O)cc3cc(S(=O)(=O)O)c(N=Nc4ccccc4S(=O)(=O)O)c(O)c23)n1 [dye 5, reference compound]	150 (≈ 192 mM)

Now from value to molecule:

solubility [mg/mL]	SMILES
350 (≈ 490 mM)	CN(CCO)c1nc(NCCS(=O)(=O)O)nc(Nc2ccc(N=Nc3c(N)ccc4cc(S(=O)(=O)O)cc(O)c34)c(S(=O)(=O)O)c2)n1 [compound 100]
320 (≈ 430 mM)	Nc1ccc2cc(S(=O)(=O)O)cc(O)c2c1N=Nc1ccc(Nc2nc(NCCS(=O)(=O)O)nc(N(CCO)CCO)n2)cc1S(=O)(=O)O [compound 101]
260 (≈ 340 mM)	Nc1ccc2cc(S(=O)(=O)O)cc(O)c2c1N=Nc1ccc(Nc2nc(NCCS(=O)(=O)O)nc(NCCS(=O)(=O)O)n2)cc1S(=O)(=O)O [compound 102]

Reference: US5824785A, “Dyes for ink jet printing” (Ilford Imaging Switzerland GmbH, priority 1995, dated 1998)
